Read-outs that look alike come from different tables or passages of the source.
Tests used:
[1] = MTT cytotoxicity test on reconstituted 3D epidermis; type: cell-based; conditions: human
Method: • Cytotoxicity through the MTT test at the end of incubation: cell survival test with 3D human epidermis reconstituted in vitro for the evaluation of the cytotoxic potential caused by the sample. • Inhibition of the release of cellular mediators of inflammation (IL-1α) after stress induced with SLS.
(§1) The cell model used for in vitro tests is represented by a three-dimensional system of reconstituted human epidermis in vitro.
(§2) This three-dimensional cellular model is made up of normal human primary keratinocytes, left to grow in vitro in order to simulate the multi-layered architecture of the human epidermis, with a well-differentiated stratum corneum. The model was purchased from CELLSYSTEMS (Troisdorf, batch 100-AE1818-1).
(§3) The skin irritation characterized by the release of IL-1α was caused by an epidermis pre-treatment for 60 minutes with SLS 0.25%.
(§4) Subsequently, 30µl of diluted sample were placed on two units and the exposure was extended for 24 hours at 37°C, 5% CO2. The sample was diluted to 0.25% in phosphate buffer.
(§5) As a negative control, two units of epidermis were treated with phosphate buffer (PBS), as a positive control two units were treated for 60' with 0.25% SLS. The test was carried out in duplicate.
At the end of the exposure, the sample and the references were removed by washing with phosphate buffer (PBS) and the cell viability was assessed.
The epidermis was incubated for 3h at 37°C with a lmg/ml solution of MTT (3- [4,5-dimethylthiazol-2-yl] -2,5-diphenyl tetrazolium bromide).
Then the solution was removed and replaced with isopropanol with subsequent 2 h incubation at room temperature.
Two aliquots of each sample were transferred to a 96-well plate for reading the absorbance, which was carried out at the wavelength of 570 nm, with a colorimeter (Tecan, model Sunrise remote) equipped with a plate reader.
The result was expressed as a cellular viability in percent according to the formula: % cell viability = [OD (570 nm) tested sample/OD (570 nm) CN] x 100

[2] = test system: 5α-reductase; assay: Gene expression of 5α-reductase by qRT-PCR in testosterone-treated dermal papilla cells; type: cell-based; conditions: Homo sapiens, HHDPC, 48 h
Excerpt: Measurement of the gene expression level of 5α-reductase by means of Real Time Polymerase Chain Reaction (qRT-PCR) in human cells of the dermal papilla with and without treatment with the sample. The purpose of the test is to highlight and quantify changes in gene expression of 5α-reductase levels in cell cultures exposed to treatment with the tested substance compared to controls of the same untreated cells. This enzyme is expressed in skin melanocytes, fibroblasts and keratinocytes and turns testosterone into di-hydro-testosterone, a key metabolite implicated in various skin disorders such as acne vulgaris, hirsutism, seborrhoea and androgenetic alopecia. After birth, the 5α-reductase enzyme (type 1) is expressed in multiple body areas, including liver, skin, scalp and prostate. 5α-reductase (type 2) is expressed in prostate, seminal vesicles, epididymis, liver, and, to a lesser extent, scalp and skin. In this test, the cells are previously treated with testosterone to induce 5α-reductase production and are exposed to various test substances for 48 hours. A titrated extract of Serenoa repens, a known pharmacologically active compound used to treat benign prostatic hyperplasia, is used as a positive control. The analysis is carried out through RT-qPCR (Real Time Quantitative Polymerase Chain Reaction), a very sensitive method for the detection and quantification of messenger RNA coding for the protein in analysis and therefore for the corresponding gene activation. RT-qPCR measures the fluorescence emitted by the amplicons produced during each PCR cycle. A culture of human dermal papilla (HHDPC) cells was used. The cells were grown in MEM containing 10% FBS and antibiotics. The cells were seeded in 12-well plates for 24 hours. Then they were treated for 24 hours with 10 ng/ml of testosterone. After this step, fresh culture medium containing the sample to be tested was added. The sample was dissolved directly in the culture medium. The concentrations of the sample to be tested were selected based on preliminary cytotoxicity. […] After precipitation and centrifugation (30' at 12,000 rpm at 4°C), the RNA was resuspended in 20 µl of sterile water and its concentration was determined by spectrophotometry. […] Changes in the gene expression profile are analysed by RT-qPCR using Syber Green as a fluorescent molecule. […] The detection of the fluorescence emitted in each cycle allows monitoring the PCR reaction during the exponential phase, namely where the first significant increases in the PCR product are related to the initial amount of template. […] Subsequently, data can be expressed as "fold change", namely as a ratio with respect to control (a) or as a percentage with respect to control (b). […]

[3] = test system: IL-1α; assay: IL-1α release (ELISA) after SLS-induced stress on reconstituted epidermis; type: cell-based, human; conditions: for IL-1α % inhibition: vs positive control
Excerpt: The study concerns the in vitro evaluation of the anti-inflammatory potential of 7-hydroxymatairesinol against the inflammatory reaction induced by moderate irritants such as sodium lauryl sulphate (SLS), using a model of human skin cells grown in vitro in multilayer.
The inhibition of the cytokine IL-1α release caused by SLS is investigated by specific ELISA tests in the presence of the tested substance compared to untreated skin samples.
as §1, §2, §3, §4, §5
For the analysis of IL-1α, samples of culture medium were taken at 6 and 24 hours. The maintenance medium of the units treated with PBS and the medium of two non-irritated skin units treated only with the sample were taken as negative control, whereas the culture medium of two skin units treated with the 0.25% SLS solution was used as a positive control.
In this study, IL-1α was dosed using the direct-type ELISA (Enzyme-linked immunosorbent assay) method, i.e. the colour development was directly proportional to the amount of cytokines in the culture medium.
The reading was carried out at 450 nm. The sensitivity limit of this test was less than 10 pg/ml.
The IL-1α concentration was determined using a standard curve as a reference. The inhibition of IL1-α release was determined as: % IL-1α inhibition: 100- (pg/ml IL-1α released from the irritated sample/pg/ml IL-1α positive control)* 100

[4] = test system: human fibroblasts of the dermal papilla (HHDPC); assay: Total protein dosage (Bradford method); type: cell-based; conditions: for activation at 1000 µg/mL: 1 mg/ml of 5% glycerine solution
Excerpt: (§6) The purpose of the test is quantitatively establishing the effects of 7-hydroxymatairesinol (HMR) on cell proliferation and on the synthesis of total proteins in human fibroblasts of the dermal papilla through the cell viability test (MTT test) after cycle synchronization, and establishing the protein dosage at different exposure times and at different sub-toxic sample dilutions.
(§7) Dermal papilla cells derived from human hair follicle (HHDPC: human hair dermal papilla cells) with fibroblastic morphology. The cells are cultured in DMEM containing 10% FBS and antibiotics.
(§8) The cells were seeded in 24-well plates and left to grow for 24h at 37°C and 5% CO2. Then they were deprived of the serum 6 hours before the experiment for cell cycle synchronization.
(§9) After 6 hours, fresh culture medium was added without serum but containing the sample to be tested in order to reach different final dilutions. The 5% glycerine-solubilized sample was dissolved in the culture medium. The test was carried out in triplicate.
(§10) After 24 and 48 hours of exposure, the MTT cell viability test and the total protein test using the Bradford method^1 were carried out on separate plates. Untreated cells were used as a negative control (CN), while cells treated with human insulin were used as a positive control (CP).
The protein dosage was carried out according to the Bradford method. At the end of the treatment, the cells were washed with sterile PBS and lysed by treatment with purified water at 4°C. The colouring reagent was added to the lysate. A standard curve of albumin titrated to 20, 40, 80 and 100 µg/ml was prepared in a similar manner.
Then 200 µl of each sample, controls and standards, each in triplicate, were transferred to a 96-well plate. The reading was carried out with a colorimeter (Tecan, Sunrise) equipped with a plate reader, at 595 nm.
To quantify proteins, a standard albumin calibration curve was drawn and sample concentrations were calculated using the interpolation curve formula and relative absorbances. The averages of the individual data were then calculated, and for each sample the percentage of increase in protein synthesis was calculated, with respect to the negative control: % protein synthesis increment = (μg/mlsampleprotein/μg/mlCN)∗100 [formula]

[5] = test system: human hair dermal papilla cells (HHDPC); assay: MTT cell viability test after cell cycle synchronization (cell proliferation); type: cell-based; conditions: for viability at 200 µg/mL / viability at 1000 µg/mL: Homo sapiens, HHDPC, vs negative control; for viability at 200 µg/mL: 0.2 mg/ml of 5% glycerine solution; for viability at 1000 µg/mL: 1 mg/ml of 5% glycerine solution
Excerpt: as §6, §7, §8, §9, §10
This method was originally developed by Mossman^2. After 24 and 48 hours of treatment, cell viability was evaluated by incubating the cells with MTT (3-[4,5-dimethylthiazol-2-yl]-2,5-diphenyl tetrazolium bromide) for 2 hours.
The precipitated formazan crystals were then extracted using isopropanol or DMSO and were spectrophotometrically quantified at 570 nm against 650 nm. The absorbance was read with a colorimeter (Tecan, model Sunrise remote) equipped with a plate reader subtracting the reading of the bottom.
The cell viability was expressed as a percentage according to the formula: % of cell viability = [OD(570nm−650nm)testedproduct/OD(570nm−650nm)CN] × 100 [formula] OD: Optical density

[6] = 6 h, sample 0.25% after SLS 0.25% pre-treatment
[7] = 24 h, sample 0.25% after SLS 0.25% pre-treatment
[8] = increase on fibroblasts of human dermal papilla compared to untreated cells

COc1cc(C[C@H]2C(=O)OC[C@@H]2[C@H](O)c2ccc(O)c(OC)c2)ccc1O [HMR, 7-hydroxymatairesinol]
viability at 24 h ([1]; sample 0.25% in phosphate buffer alone, 24 hours exposure, read-out: % average cell viability (ds)): 78.2%
viability at 24 h ([1]; sample 0.25%, 24 hours, after 60 minutes pre-treatment with SLS 0.25%, read-out: % average cell viability (ds)): 55.9%
mrna remaining at 0.01 % ([2]; 0.2 mg/ml of solution (stated as 0.01% HMR), vs untreated control, read-out: % 5a-reductase (ds) expression): 90.9%
inhibition at 0.01 % ([2]; 0.2 mg/ml of solution (stated as 0.01% HMR), vs untreated control, read-out: % reduction): 9.07%
inhibition at 0.05 % ([2]; 1 mg/ml of solution (stated as 0.05% HMR), 5α-reductase mRNA vs untreated control, read-out: % reduction): 57.1%
mrna remaining at 0.05 % ([2]; 1 mg/ml of solution (stated as 0.05% HMR), vs untreated control, read-out: % 5a-reductase (ds) expression): 42.9%
IL-1α Mean [3, 6]: 19.72 pg/mL
IL-1α % inhibition [3, 6]: 13.94%
IL-1α Mean ([3]; 6 h, sample 0.25% alone, non-irritated epidermis): 18.07 pg/mL
IL-1α Mean [3, 7]: 97.70 pg/mL
IL-1α % inhibition [3, 7]: 51.32%
IL-1α Mean ([3]; 24 h, sample 0.25% alone, non-irritated epidermis): 26.40 pg/mL
activation at 200 µg/mL ([4]; Homo sapiens, Fibroblast, HHDPC, 24 h, 0.2 mg/ml of 5% glycerine solution, increase vs negative control, read-out: % protein synthesis): 10.4%
activation at 1000 µg/mL ([4]; Homo sapiens, Fibroblast, HHDPC, 24 h, increase vs negative control, read-out: % protein synthesis): 24.5%
activation at 1000 µg/mL ([4]; Homo sapiens, Fibroblast, HHDPC, 48 h, increase vs negative control, read-out: % protein synthesis): 16.8%
protein synthesis [4, 8]: 24%
viability at 200 µg/mL ([5]; 24 h): 110%
viability at 1000 µg/mL ([5]; 24 h): 99.7%
viability at 200 µg/mL ([5]; 48 h): 119%
viability at 1000 µg/mL ([5]; 48 h): 105%
cell proliferation [5, 8]: 19%

CCCCCCCCCCCCOS(=O)(=O)[O-].[Na+] [SLS, sodium lauryl sulphate, reference compound]
viability at 1 h ([1]; SLS 0.25% for 60 minutes, positive control, read-out: % average cell viability (ds)): 50%
viability ([1]; positive control (SLS 0.25%), test acceptability table): 50%
IL-1α Mean ([3]; 6 h, SLS 0.25% for 60 minutes, positive control): 22.92 pg/mL
IL-1α Mean ([3]; 24 h, SLS 0.25% for 60 minutes, positive control): 200.72 pg/mL

Reference: patent EP3568131B1, “COMPOSITION COMPRISING 7-HYDROXYMATAIRESINOL FOR USE IN THE TREATMENT AND IN THE PREVENTION OF TRICHOLOGICAL DISEASES OF INFLAMMATORY AND/OR HORMONAL ORIGIN” (Sinerga Group S.r.l., priority 2017, dated 2018)
